The source of these data is patent US20240115731A1, “METHOD OF DELIVERING MRNA IN VIVO” (PCI Biotech AS, priority 2021, published 2024).

Test [1] concerns thigh muscle of C57BL/6 mice. The experiment in a line: Intramuscular naked mRNA delivery, IVIS bio-luminescence imaging of injection sites. It counts as in vivo. From the text:
(§1) Female mice of the strain C57BL/6 (Charles River) were used. Animal identification and conditions of housing, acclimatisation, environment, diet and water was in accordance with the current Standard Operating Procedures at the animal facilities at Oslo University Hospital—The Radium Hospital. Age and weight at start of dosing: 5-6 weeks, 18-20 g. The injection area was shaved before illumination.
(§2) Firefly luciferase mRNA (L-7202—with modified base 5-methoxyuridine (5 moU), and with the TriLink CleanCap™ modification as the capping structure, purchased from TriLink Biotechnologies, San Diego, USA) was used.
(§3) TPCS2a (Amphinex®, PCI Biotech AS, Norway) was used mixed in a volume of 20 μl PBS (e.g. using a 0.000015 μg/μl solution for a 0.0003 μg dose).
(§4) mRNA (in aqueous solution, 20 μl of 0.1 μg/μl from stock solution of 1 μg/μl) in the amounts indicated in the table below were injected into the thigh muscle of each animal, with or without TPCS2a in the amounts indicated.
(§5) […] Animals 7-12 were not illuminated. 20 hours after the injections the animals were analysed by IVIS and assayed for luciferase activity (Luciferase Assay System, Promega, Cat #E1500) in muscle homogenates.
(§6) • 1. 20-24 hours after light (or TPCS2a injection), mice were given an intraperitoneal injection of 3 mg D-Luciferin (200 μl of 15 mg/ml stock). • 2. After approximately 10 minutes the mice were anaesthetized by a subcutaneous injection of Zoletil (15 mg/kg xylasin, 7.5 mg/kg butorphanol, 9 mg/kg zolazepam, and 9 mg tiletamine) • 3. 20 minutes after D-luciferin (Caliper Life Sciences) injection, the mice were placed in the IVIS instrument (IVIS Spectrum, model 124375R from PerkinElmer, Andor camera IS0825R4582; iKon Living Image version: 4.5.2.18424. Binning factor: 8; Excitation filter: Block; Emission filter: Open; f Number: 1) and pictures were taken with automatic exposure of Luminescence. • 4. Bio-luminescence is expressed as “Total Flux” (photon/second)×10^5.

For test [2], the system named is thigh muscle of C57BL/6 mice. The test is described as follows: Intramuscular naked mRNA delivery, luciferase assay in muscle homogenates. It counts as in vivo.
Source text: as §1, §2, §3, §4, §5
(§7) Muscle homogenates were prepared from frozen tissue samples using a Precelly homogenizer and lysis buffer with phosphatase and protease inhibitors (MSD, Cat. No. R60TX-2, R70AA-1). Protein analysis was performed using the DC Protein Assay (Biorad). Luciferase is expressed as relative units (RLU=relative luminescence units) per mass of protein in the samples.

Test [3] relates to BL/6 mouse skin. The experiment in a line: Intradermal naked mRNA delivery, luciferase assay in skin homogenates. It counts as in vivo, mice. The procedure: as §7
(§8) The materials and methods were as used in Example 1, except that the administration was intradermal and blue light was used (wavelength between 400 and 540 nm with a peak at around 435 nm from the LumiSource illumination device produced by PCI Biotech AS, with a 13 mW/cm^2 fluence rate—a 6 minute illumination delivers 4.7 J/cm^2). Luciferase activity was assessed as set out in Example 1 except that skin homogenates were used.
The materials and methods were as used in Example 2. Luciferase activity was assessed as set out in Example 1 except that skin homogenates were used.
The materials and methods were as used in Example 3 but with even lower doses. Luciferase activity was assessed as set out in Example 1 except that skin homogenates were used.

The subject of another test is BL/6 mice. The test is described as follows: Conclusions from Examples: fold increase (PCI/mRNA alone), IVIS and luciferase assay. It counts as in vivo. The note with it: illumination 30 seconds after mRNA/photosensitiser injection. The procedure: Good correspondence between the IVIS and luciferase assay results was observed. The fold increase (PCI/mRNA alone) with illumination only 30 seconds after mRNA/photosensitiser injection is higher than has been achieved in earlier experiments in which illumination was conducted 60 minutes after injection (3-5 times improvement). The improvement relative to using no photosensitiser is in the order of 30 fold. Shorter contact times were also effective at very low photosensitiser dose allowing for reduced side effects in subjects.

Test [4] has as its system BL/6 mouse skin. The test is described as follows: Intradermal naked mRNA delivery, IVIS bio-luminescence imaging of injection sites. It counts as in vivo, mice. The note with it: Example 5: intradermal, 2 μg mRNA + 0.003 μg TPCS2a, blue light 30 seconds after administration. The procedure: as §6, §8
The materials and methods were as used in Example 2. Animals were injected at two sites (left or right). IVIS was examined as set out in Example 1. […]

The mark [5] stands for this setting: Example 6: intramuscular, 2 μg mRNA + 0.0003 or 0.0001 μg TPCS2a, blue light 30 seconds after injection.

On to “tetraphenyl chlorin disulfonate [TPCS2a]”, for which the “bio-luminescence of PCI sites vs control sites receiving mRNA only” value was “significantly stronger luminescence” in test [1] (Example 1: intramuscular, 2 μg mRNA + 0.0003 μg TPCS2a, red light 1 J/cm^2 5 minutes after injection) and “significantly stronger luminescence” in test [1] (setting [5]). Moreover, in test [1] (Example 10: intramuscular, 2 μg mRNA + 0.000003 μg TPCS2a, red light 1 J/cm^2, 5 minute interval), the “bio-luminescence, effect of PCI at very low dose” value is on record as “An effect was observed”. For the same substance, the “increase of bio-luminescence by PCI” value in test [1] (Example 10: intramuscular, 2 μg mRNA + 0.0001 μg TPCS2a, red light 1 J/cm^2, 5 minute interval) was determined as 5 fold; in test [1] (Example 10: intramuscular, 2 μg mRNA + 0.0003 μg TPCS2a, red light 1 J/cm^2, 5 minute interval) it was 7 fold. In addition, in test [2] (Example 1: intramuscular, 2 μg mRNA + 0.0003 μg TPCS2a, red light 652 nm 1 J/cm^2 5 minutes after injection, 20 hours), the “mean fold of increase for the PCI treated sites vs mRNA only sites (luciferase assay)” value is 4.9 times. Further, the “effectiveness of low photosensitiser dose (luminescence and luciferase activity)” value in test [2] (Example 6: intramuscular, 2 μg mRNA + 0.0001 μg TPCS2a, blue light 30 seconds after injection) is reported as “highly effective”. The “luciferase activity of PCI sites vs control sites receiving mRNA only” value in test [2] (setting [5]) is on record as “significantly stronger”. Besides, in test [2] (Example 7: intramuscular, 2 μg mRNA + 0.0003 μg TPCS2a, blue light 30 seconds after injection), the “luciferase activity in muscle, effectiveness at lower dose” value was “effective”. Further, the “luciferase activity in muscle, effectiveness by photosensitiser dose” value in test [2] (Example 8: intramuscular, 2 μg mRNA + 0.0003 μg TPCS2a (vs 0.003 and 0.1 μg), blue light 10 minutes after injection) is reported as “more effective than the higher doses”. The “increase by PCI (luciferase assay)” value in test [2] (Example 9: intramuscular, 2 μg mRNA + 0.0001 μg TPCS2a, red light 0.3 to 3 J/cm^2, 5 minute interval) is reported as 8-9 fold. In addition, the “effect of PCI (luciferase assay), 10 minute interval” value in test [2] (Example 9: intramuscular, 2 μg mRNA + 0.0001 μg TPCS2a, red light 0.3 to 3 J/cm^2, 10 minute interval) is given as “effective but not at the same levels as the 5 minute interval”. Further, the “enhancement of mRNA delivery (luciferase assay), longer contact times” value in the test on BL/6 mouse skin [3] (Example 2: intradermal, 2 μg mRNA + 0.003 μg TPCS2a, blue light, 30 or 60 min contact time) is reported as “much less effective”. Besides, in the test on BL/6 mouse skin [3] (Example 2: intradermal, 2 μg mRNA + 0.003 μg TPCS2a, blue light, 10 minute contact time), the “enhancement of mRNA delivery (luciferase assay) vs mRNA alone” value is “about 20 times”. In addition, the “luciferase activity in skin, effectiveness by photosensitiser dose” value in the test with BL/6 mouse skin [3] (Example 3: intradermal, 2 μg mRNA + 0.003 μg TPCS2a (vs 0.01 and 0.05 μg), blue light 30 seconds after injection) was “more effective than higher doses”. In the test on BL/6 mouse skin [3] (Example 4: intradermal, 2 μg mRNA + 0.0003 μg TPCS2a, blue light 30 seconds after injection), the “luciferase activity in skin, effectiveness at lower dose” value is recorded as “effective”. Besides, the “improvement of fold increase (PCI/mRNA alone) with illumination 30 seconds after injection over earlier experiments with illumination 60 minutes after injection” value in the test on BL/6 mice is on record as 3-5 times. Besides, the “improvement relative to using no photosensitiser” value with BL/6 mice is recorded as roughly 30 fold. In the test with BL/6 mouse skin [4], the “increase of bio-luminescence of PCI sites vs control sites receiving mRNA only” value was “around 7.2 fold”.
